# Experimental data published in US11903981B2, “Use of Anaerofustis stercorihominis in preventing and/or treating metabolic diseases” (priority 2018, dated 2024).
# Marks after values point to notes of the source that are not given here.
# Assays:
# Type in all cases: in vivo
# [1] = test system: obesity mice model (C57BL/6 male mice, high-fat feed); assay: Obesity animal model (high-fat feed), body weight; conditions: bacterial solution 1×10^8 cfu/ml by gavage; for Weight of mice, Week 9: Week 9, *P<0.05 relative to model group
# Description: The obesity animal model is constructed by using C57BL/6 male mice (purchased from Guangdong Medical Experimental Animal Center) at 8 weeks old and 20±2 g of body weight, which is housed in a specific pathogen free (SPF) environment and access to food and water ad lib. The mice are randomly divided into 5 groups, with 10 mice in each group.
# Bacterial agent group 1: mice were fed with high-fat feed every day, in which the AM25-6 bacterial solution (1×10^8 cfu/ml) was administered by gavage for 9 weeks after 4 weeks of feeding high-fat feed;
# Bacterial agent group 2: mice were fed with high-fat feed every day, in which the DSM 17244 bacterial solution (1×10^8 cfu/ml) was administered by gavage for 9 weeks after 4 weeks of feeding high-fat feed;
# Bacterial agent group 3: mice were fed with high-fat feed every day, in which the DSM 28733 bacterial solution (1×10^8 cfu/ml) was administered by gavage for 9 weeks after 4 weeks of feeding high-fat feed;
# Obesity model group: mice were fed with high-fat feed every day, in which the culture medium in a same amount was administered by gavage for 9 weeks after 4 weeks of feeding high-fat feed.
# During the experimental period, experimental data such as the body weight, body condition and food intake amount of mice were recorded every week. After the completion of experiment, the mice were sacrificed, and the fat weight was recorded and the serum was collected for detecting blood lipids by using the Elisa kit.
# [2] = test system: T2D mice model (C57bL/6 mice); assay: T2D animal model (STZ plus high-fat feed), body weight; conditions: gavage
# Description: (§1) The T2D animal model is constructed by using C57bL/6 mice (purchased from Guangdong Medical Experimental Animal Center) at 8 weeks old and 20±2 g of body weight. The mice were housed in a specific pathogen free (SPF) environment and adaptively fed for 1 week, followed by grouping and modeling. The T2D animal model is induced by injection of streptozotocin (STZ) along with feeding high-fat feed, and the mice having fasting blood glucose (FBG) reaching to 10 mM/L can be used as a T2D mice model. Fifty mice selected for experiments are randomly divided into 5 groups.
# (§2) Bacterial agent group 1: the T2D mice model was administered with the AM25-6 bacterial solution (1×10^8 cfu/ml) by gavage;
# (§3) Bacterial agent group 2: the T2D mice model was administered with the DSM 17244 bacterial solution (1×10^8 cfu/ml) by gavage;
# (§4) Bacterial agent group 3: the T2D mice model was administered with the DSM 28733 bacterial solution (1×10^8 cfu/ml) by gavage;
# (§5) Metformin treatment group: the T2D mice model was treated with the positive drug metformin.
# (§6) The experiment was carried out based on the different groups. After the construction of T2D mice model (i.e., FBG>10), the treatment was started and lasted for 2 months. The food intake amount and body weight of mice were recorded daily. Blood of mice was collected from the tail vein every week for detection of fasting blood glucose. The oral glucose tolerance test (OGTT) of mice was measured at week 4 of treatment and at the end of the experiment.
# [3] = test system: T2D mice model (C57bL/6 mice); assay: T2D animal model, fasting blood glucose
# Description: as §1, §2, §3, §4, §5, §6
# [4] = test system: T2D mice model (C57bL/6 mice); assay: T2D animal model, oral glucose tolerance test (OGTT); conditions: for Blood glucose in OGTT, 0 minute: 0 minute after glucose by gavage; for Blood glucose in OGTT, 30 minutes: 30 minutes after glucose by gavage; for Blood glucose in OGTT, 60 minutes: 60 minutes after glucose by gavage; for Blood glucose in OGTT, 90 minutes: 90 minutes after glucose by gavage; for Blood glucose in OGTT, 120 minutes: 120 minutes after glucose by gavage
# Description: as §1, §6
# The results of oral glucose tolerance test (OGTT) for mice shown in Table 8 indicate that the blood glucose of mice reaches the highest level (i.e., 17.8-23.1 mmol/L) at 30 minutes upon administration of glucose by gavage. […] From the perspective of overall glucose tolerance process, it can be seen that Anaerofustis stercorihominis can effectively ameliorate glucose intolerance in diabetic mice.
# [5] = test system: C57bL/6 mice fed with high-fat feed; assay: Hyperlipidemia animal model (high-fat feed), blood lipids and blood viscosity; conditions: for blood viscosity: carotid artery blood, hemorheological examination; for HDLC (high-density lipoprotein) / LDLC (low-density lipoprotein) / TC (total cholesterol) / TG (triglyceride): serum, bacterial solution 2 ml 1×10^9 cfu/ml daily or tablets 0.6 g/kg
# Description: Sixty C57bL/6 mice (purchased from Guangdong Medical Experimental Animal Center) at 6 weeks old were used in this experiment, which were normally fed in a Specific pathogen Free (SPF) environment. The mice were adaptively fed for 1 week and then randomly divided into 6 groups, with 10 mice in each group. The animal model is constructed along with intervention.
# Bacterial agent group 1: the mice were fed with high-fat feed and 2 ml of AM25-6 bacterial solution (1×10^9 cfu/ml) daily;
# Bacterial agent group 2: the mice were fed with high-fat feed and 2 ml of DSM 17244 bacterial solution (1×10^9 cfu/ml) daily;
# Bacterial agent group 3: the mice were fed with high-fat feed and 2 ml of DSM 28733 bacterial solution (1×10^9 cfu/ml) daily;
# Tongmai Jiangzhi tablet group (a positive drug for the treatment of hyperlipidemia): the mice were fed with high-fat feed and 0.6 g/kg Tongmai Jiangzhi tablets;
# Experimental data such as the body condition, food intake amount and the like of mice was recorded every week before and after the intervention of the model. After the completion of experiment, the mice were sacrificed, and the fat content was recorded, the serum was collected for detection of blood lipid contents (including total cholesterol (TC), triglyceride (TG), high-density lipoprotein (HDLC) and low-density lipoprotein (LDLC)) in the serum according to the instruction of kit. Blood from the last carotid artery was taken for hemorheological examination.
# [6] = test system: SD rats, myocardial ischemia induced by pituitrin; assay: Experimental myocardial ischemia in rats induced by pituitrin, ST-segment displacement; conditions: gavage daily for 10 days, pituitrin 1 unit/kg iv., **P<0.01, *P<0.05 relative to model group
# Description: Fifty SD rats (purchased from Guangdong Medical Experimental Animal Center, half male and half female) at 180-220 g of body weight and 6 weeks old were used in this experiment, which were normally fed in a Specific pathogen Free (SPF) environment. The rats were adaptively fed for 1 week and then randomly divided into 5 groups, with 10 rats in each group.
# Model group: the rats were fed with 2.5 ml/kg PBS by gavage daily for 10 consecutive days; Bacterial agent group 1: the rats were fed with 2.5 ml/kg AM25-6 bacterial solution (1×10^9 cfu/ml) by gavage daily for 10 consecutive days;
# Bacterial agent group 2: the rats were fed with 2.5 ml/kg DSM 17244 bacterial solution (1×10^9 cfu/ml) by gavage daily for 10 consecutive days;
# Bacterial agent group 3: the rats were fed with 2.5 ml/kg DSM 28733 bacterial solution (1×10^9 cfu/ml) by gavage daily for 10 consecutive days;
# FuFangDanShen tablet group: the rats were fed with 2 g/kg FuFangDanShen tablet (SFDA approval number Z21020381, Tianjin Tasly (Liaoning) Pharmaceutical Co., Ltd.) by gavage daily for 10 consecutive days.
# For each group, the standard lead I electrocardiogram was recorded post 1 hour of last administration, followed by sublingual intravenous injection (iv.) with pituitrin (SFDA approval number H31022259, specifications: 2 ml: 6 units, from Shanghai First Biochemical & Pharmaceutical Industry Co., Ltd.) in 1 unit/kg (in a volume of 1 ml/kg) within 15 seconds, after which the change of electrocardiogram was recorded post 5 seconds, 15 seconds, 30 seconds, 1 minute, 2 minutes, 3 minutes and 5 minutes, and the change of ST segment displacement before and after administration of pituitrin was measured and compared, with statistical analysis by using t test between groups.
# [7] = Week 9, *P<0.05 relative to model group
Substance,"Weight of mice, Week 1 [1] [g]","Weight of mice, Week 3 [1] [g]","Weight of mice, Week 5 [1] [g]","Weight of mice, Week 7 [1] [g]","Weight of mice, Week 9 [1]",Body weight ([2]; Week 1) [g],Body weight ([2]; Week 3) [g],Body weight ([2]; Week 5) [g],Body weight ([2]; Week 7) [g],"Body weight [2, 7]","Fasting blood glucose, Week 1 [3] [mmol/L]","Fasting blood glucose, Week 3 [3] [mmol/L]","Fasting blood glucose, Week 5 [3]","Fasting blood glucose, Week 7 [3]","Fasting blood glucose, Week 9 [3]","Blood glucose in OGTT, 0 minute [4] [mmol/L]","Blood glucose in OGTT, 30 minutes [4] [mmol/L]","Blood glucose in OGTT, 60 minutes [4] [mmol/L]","Blood glucose in OGTT, 90 minutes [4]","Blood glucose in OGTT, 120 minutes [4] [mmol/L]",also measured
Anaerofustis stercorihominis AM25-6 [Bacterial agent group 1],21.13,22.59,23.98,24.13,25.47* g,22.34,23.57,24.26,25.53,25.97* g,16.1,15.6,13.2* mmol/L,10.4** mmol/L,8.6** mmol/L,9.1,17.8,15.9,11.5* mmol/L,10.1,blood viscosity [5]: 1.26*; HDLC (high-density lipoprotein) [5]: 3.219 mmol/L; LDLC (low-density lipoprotein) [5]: 1.454* mmol/L; TC (total cholesterol) [5]: 4.014* mmol/L; TG (triglyceride) [5]: 0.893* mmol/L; ST-segment displacement (±S) [6]: 0.017 ± 0.011** mv
Anaerofustis stercorihominis DSM 17244 [Bacterial agent group 2],20.15,21.78,22.99,23.88,25.62* g,21.55,22.43,23.78,25.13,25.58* g,15.8,15.7,14.6 mmol/L,11.7* mmol/L,9.0** mmol/L,9.7,18.0,14.9,12.1* mmol/L,9.9,blood viscosity [5]: 1.29*; HDLC (high-density lipoprotein) [5]: 3.219 mmol/L; LDLC (low-density lipoprotein) [5]: 1.585* mmol/L; TC (total cholesterol) [5]: 4.021* mmol/L; TG (triglyceride) [5]: 0.933* mmol/L; ST-segment displacement (±S) [6]: 0.018 ± 0.012** mv
Anaerofustis stercorihominis DSM 28733 [Bacterial agent group 3],21.19,22.44,23.78,24.19,25.67* g,21.76,23.36,24.57,25.14,25.45* g,16.7,15.5,13.6* mmol/L,10.4** mmol/L,7.8** mmol/L,9.6,18.2,15.6,11.7* mmol/L,10.2,blood viscosity [5]: 1.25*; HDLC (high-density lipoprotein) [5]: 3.311 mmol/L; LDLC (low-density lipoprotein) [5]: 1.423* mmol/L; TC (total cholesterol) [5]: 4.017* mmol/L; TG (triglyceride) [5]: 0.912* mmol/L; ST-segment displacement (±S) [6]: 0.020 ± 0.012** mv
